Source: US11364275B2, “Linear lipopeptide paenipeptins and methods of using the same” (priority 2017, dated 2022)
Read-outs that look alike come from different tables or passages of the source. Where a SMILES comes first, the peptide text is derived from it. Bridges are numbered along the chain shown (N, C = ends). [ ]: non-standard residue; d: D form. Cha = N[C@@H](CC1CCCCC1)C(=O)O; Dab = NCC[C@H](N)C(=O)O

Tests used:
[1] = tested on: S. aureus ATCC 29213; assay type: cell-based, Staphylococcus aureus; settings: S. aureus; 95% serum vs TSB
Procedure: (§1) The impact of human serum on the antibacterial activity of selected paenipeptin analogues was determined using a procedure similar to that used for MIC determination as described above except that the microbiological medium was replaced by human serum (MP Biomedicals, Solon, Ohio). Paenipeptin analogues were two-fold diluted in 100% human serum and mixed with an equal volume of 90% serum containing approximately 1.5×10^5 CFU/mL of E. coli ATCC 25922 or S. aureus ATCC 29213. The final paenipeptin concentrations ranged from 0.5-64 μg/mL in 95% serum. The MIC in the presence of serum was then tested as described above.

[2] = tested on: P. aeruginosa ATCC 27853; experiment: Impact of purified LPS on bactericidal activity; assay type: cell-based, Pseudomonas aeruginosa; settings: LPS 100 μg/ml; analogue at 16 μg/mL; 60 min
Procedure: For studies with LPS, P. aeruginosa ATCC 27853 was diluted with TSB to contain approximately 10^6 CFU/mL. […] The mixtures were incubated at 37° C. with agitation at 200 rpm for 60 min. Surviving cells were quantified by plating on TSA. There were three independent experiments with one replicate in each experiment. […] There were four independent experiments with one replicate in each experiment.

[3] = tested on: P. aeruginosa ATCC 27853; assay type: cell-based, Pseudomonas aeruginosa
Excerpt: (§2) The surviving cells from each antimicrobial concentration with no visible growth were enumerated by plating on tryptic soy agar (TSA). MBC was defined as the lowest concentration of the antimicrobial agent that led to at least a 99.9% reduction in the number of viable bacterial cells relative to the initial inoculum. There were three independent experiments with one replicate in each experiment.

[4] = tested on: P. aeruginosa ATCC 27853 biofilm; experiment: Established catheter-associated biofilm in vitro; assay type: cell-based, Pseudomonas aeruginosa; settings: 40× MIC (40 μg/ml)
Procedure: (§3) Each well was inoculated with the methicillin-resistant S. aureus strain LAC or P. aeruginosa ATCC 27853 to an OD600nm of 0.05. […] After 72 h of exposure, catheters were rinsed with PBS, followed by sonication (for S. aureus) or vigorous vortexing (for P. aeruginosa) to quantitatively recover adherent bacteria. Viable S. aureus or P. aeruginosa cells were enumerated by plating serial dilutions on TSA.

[5] = tested on: methicillin-resistant S. aureus strain LAC biofilm; experiment: Established catheter-associated biofilm in vitro; assay type: cell-based, Staphylococcus aureus; settings: for reduction of viable biofilm-associated cells: 72 h
Procedure: as §3

[6] = tested on: A. baumannii ATCC 19606; assay type: cell-based, Acinetobacter baumannii
Excerpt: as §2

[7] = tested on: S. aureus ATCC 29213; experiment: Time-kill assay; assay type: cell-based, Staphylococcus aureus; settings: for reduction of viable cells: after 4 h
Procedure: (§4) The surviving cells after antimicrobial treatment were enumerated at 0, 2, 4, 6 and 24 h by plating on TSA. There were three independent experiments with one replicate in each experiment

[8] = tested on: E. coli ATCC 25922; assay type: cell-based, Escherichia coli; settings: E. coli; 95% serum vs TSB
Procedure: as §1

[9] = tested on: Escherichia coli ATCC 25922; assay type: in vitro ADME
Procedure: To determine the stability of peptides in human serum, paenipeptin analogues were added into 100% human serum to a final concentration of 64 μg/ml. The mixtures were incubated at 37° C. and samples were withdrawn at 0, 6, 12 and 24 h. […] The residual antibacterial activity after incubation in human serum was compared to the non-treated control.

[10] = tested on: Escherichia coli ATCC 25922; assay type: cell-based; settings: ATCC 25922
Procedure: (§5) The minimum inhibitory concentration (MIC) of paenipeptin analogues was determined using the broth microdilution method (Wirker, M. A. Methods for Dilution Antimicrobial Susceptibility Tests for Bacteria that Grow Aerobically: Approved Standard M07-A8; Clinical and Laboratory Standards Institute, Wayne, Pa., 2009). Seven reference strains (Acinetobacter baumannii ATCC 19606, Escherichia coli ATCC 25922, Klebsiella pneumoniae ATCC 13883, Pseudomonas aeruginosa ATCC 27853, Enterococcus faecium ATCC 19434, Staphylococcus aureus ATCC 29213 and methicillin-resistant S. aureus ATCC 43300) were subjected to MIC testing.
(§6) Paenipeptin analogues were two-fold diluted in tryptic soy broth (TSB; Becton Dickinson) and mixed with an equal volume of bacterial suspensions in TSB containing approximately 1.5×10^5 colony-forming units (CFU)/mL in a clear UV-sterilized 96-well microtiter plate (NBS, Corning Inc., Corning, N.Y.). […] The microtiter plate was incubated at 37° C. for 18-20 h.

[11] = tested on: S. aureus ATCC 29213; experiment: Impact of purified LTA on bactericidal activity; assay type: cell-based, Staphylococcus aureus; settings: analogue at 32 μg/mL, 60 min
[12] = tested on: Acinetobacter baumannii ATCC 19606; assay type: cell-based; settings: A. baumannii
Procedure: as §5, §6

[13] = tested on: nine carbapenem-resistant clinical isolates from the FDA-CDC Antibiotic Resistance Bank; settings: range over nine carbapenem-resistant clinical isolates
Procedure: The minimum inhibitory concentration (MIC) of paenipeptin analogues was determined using the broth microdilution method (Wirker, M. A. Methods for Dilution Antimicrobial Susceptibility Tests for Bacteria that Grow Aerobically: Approved Standard M07-A8; Clinical and Laboratory Standards Institute, Wayne, Pa., 2009).
as §6
There were at least three independent experiments with one replicate in each experiment.

[14] = tested on: E. coli ATCC 25922; assay type: cell-based, Escherichia coli
Excerpt: as §2

[15] = tested on: rabbit red blood cells; experiment: Hemolytic activity; assay type: cell-based; settings: relative to Triton X-100
How it was run: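 Washed defibrinated rabbit RBCs in PBS pH 7.2 incubated 30 min at 37 °C with paenipeptin analogues at 16–128 μg/mL final. Released hemoglobin read at 415 nm in the supernatant; % hemolysis relative to 0.1% Triton X-100.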

[16] = tested on: Klebsiella pneumoniae ATCC 13883; assay type: cell-based; settings: K. pneumoniae
[17] = tested on: P. aeruginosa ATCC 27853; experiment: Time-kill assay; assay type: cell-based, Pseudomonas aeruginosa
Procedure: as §4

[18] = tested on: K. pneumoniae FDA-CDC AR 0044
[19] = tested on: A. baumannii FDA-CDC AR 0063
[20] = tested on: K. pneumoniae FDA-CDC AR 0097
[21] = tested on: K. pneumoniae FDA-CDC AR 0068
[22] = tested on: A. baumannii FDA-CDC AR 0083
[23] = tested on: A. baumannii FDA-CDC AR 0070
[24] = tested on: K. pneumoniae FDA-CDC AR 0034
[25] = tested on: A. baumannii FDA-CDC AR 0052
[26] = tested on: K. pneumoniae FDA-CDC AR 0080
[27] = tested on: A. baumannii FDA-CDC AR 0037
[28] = tested on: 10 carbapenem-resistant strains; settings: all 10 tested strains

With CC(C)C[C@H](NC(=O)[C@@H](Cc1ccccc1)NC(=O)[C@H](CCN)NC(=O)[C@H](Cc1ccccc1)NC(=O)[C@H](CCN)NC(=O)[C@@H](N)CC1CCCCC1)C(=O)N[C@@H](CCN)C(=O)N[C@H](CC(C)C)C(=O)N[C@@H](Cc1ccccc1)C(=O)N[C@@H](CO)C(N)=O [Analogue 17] (H-[Cha][Dab]F[Dab][dF]L[Dab][dL]FS-NH2) the “reduction in activity in the presence of human serum” value [1] was 88-94%, the “impact of purified LPS on bactericidal activity” value [2] was “neutralized the bactericidal activity” and the MBC [3] was 2 to 4 µg/mL. The “reduction of viable cells in established biofilm” value [4] was 2.6 log, the “reduction of viable biofilm-associated cells” value ([5]; 40 μg/mL (5×MIC)) was 3 log and the “reduction of viable biofilm-associated cells” value ([5]; 160 μg/mL (20×MIC)) was 5 log. For the same molecule, the “catheters completely cleared of viable bacteria” value ([5]; 20 times MIC, six catheters) was 50%, the MBC [6] was 4 to 8 µg/mL and the regrowth ([7]; 8 μg/ml) was “Regrowth”. For the same molecule, the “reduction of viable cells” value ([7]; 16 μg/ml) was 3.1 logs, the “reduction of viable cells” value ([7]; 32 μg/ml) was 5.4 logs and the “reduction in activity in the presence of human serum” value [8] was 88-94%. For the same molecule, the “MIC after incubation in human serum at 37° C.” value (“MIC after incubation” below) ([9]; ATCC 25922, 0 h) was 4 to 8 µg/mL, the “MIC after incubation” value ([9]; ATCC 25922, 6 h) was 4 to 8 µg/mL and the “MIC after incubation” value ([9]; ATCC 25922, 12 h) was 4 to 8 µg/mL. For the same molecule, the MIC [10] was 0.5 to 1 µg/mL, the “impact of purified LTA on antibacterial activity” value ([11]; LTA 50 μg/ml) was “some inhibition” and the “impact of purified LTA on antibacterial activity” value ([11]; LTA 100 μg/mL) was “significantly reduced the antibacterial activity”. For the same molecule, the “improvement in antibacterial activity by comparison to compound 8” value [12] was ≥ 4 fold, the MIC [13] was 0.5 to 2 µg/mL and the MBC [14] was 8 to 16 µg/mL. For the same molecule, the Hemolysis ([15]; 16 μg/mL) was 0.60 ± 0.18%, the Hemolysis ([15]; 32 μg/mL) was 2.46 ± 0.34% and the Hemolysis ([15]; 64 μg/mL) was 11.02 ± 0.99%. The Hemolysis ([15]; 128 μg/mL) was 34.6 ± 0.91%, the “improvement in antibacterial activity by comparison to compound 8” value [16] was ≥ 4 fold and the “reduction of viable cells” value ([17]; 8 μg/ml, 2 h) was 2.2 log. The “regrowth at 24 h” value ([17]; 8 μg/ml, 24 h) was “significant bacterial regrowth was observed”, the “viable cells after 24 h exposure” value ([17]; 16 μg/ml, 24 h) was “no viable cells were detected” and the “reduction of viable cells” value ([17]; 16 μg/ml, within 2 h) was 3.7 logs. The “viable cells after 24 h exposure” value ([17]; 32 μg/ml, 24 h) was “no viable cells were detected” and the “reduction of viable cells” value ([17]; 32 μg/ml, within 2 h) was 5.1 logs.
With CC(C)C[C@@H]1NC(=O)[C@@H](Cc2ccccc2)NC(=O)[C@H](CCN)NC(=O)[C@@H](NC(=O)[C@H](CCN)NC(=O)[C@@H](N)[C@@H](C)O)CCNC(=O)[C@H]([C@@H](C)O)NC(=O)[C@H](CCN)NC(=O)[C@H](CCN)NC1=O [polymyxin B nonapeptide, reference compound] (H-T[Dab][Dab][Dab][dF]L[Dab][Dab]T; lactam 3-C (inferred); N-terminus assumed) the MIC alone ([18]; FDA-CDC AR 0044) was >32 µg/mL, the “MIC of clarithromycin at the presence of PMBN or paenipeptin analogue at 4 μg/ml” value ([18]; K. pneumoniae AR 0044) was 4 μg/ml and the “MIC of rifampicin at the presence of PMBN or paenipeptin analogue at 4 μg/ml” value ([18]; K. pneumoniae AR 0044) was 2 μg/ml. For the same molecule, the “MIC of clarithromycin at the presence of PMBN or paenipeptin analogue at 4 μg/ml” value ([19]; A. baumannii AR 0063) was 0.5-1 μg/ml, the “MIC of rifampicin at the presence of PMBN or paenipeptin analogue at 4 μg/ml” value ([19]; A. baumannii AR 0063) was 0.125 μg/ml and the MIC alone ([19]; FDA-CDC AR 0063) was >32 µg/mL. For the same molecule, the MIC alone ([20]; FDA-CDC AR 0097) was >32 µg/mL, the “MIC of clarithromycin at the presence of PMBN or paenipeptin analogue at 4 μg/ml” value ([20]; K. pneumoniae AR 0097) was 32 μg/ml and the “MIC of rifampicin at the presence of PMBN or paenipeptin analogue at 4 μg/ml” value ([20]; K. pneumoniae AR 0097) was 16 μg/ml. For the same molecule, the MIC alone ([21]; FDA-CDC AR 0068) was >32 µg/mL, the “MIC of clarithromycin at the presence of PMBN or paenipeptin analogue at 4 μg/ml” value ([21]; K. pneumoniae AR 0068) was >32 μg/ml and the “MIC of rifampicin at the presence of PMBN or paenipeptin analogue at 4 μg/ml” value ([21]; K. pneumoniae AR 0068) was 2-8 μg/ml. The “MIC of clarithromycin at the presence of PMBN or paenipeptin analogue at 4 μg/ml” value ([22]; A. baumannii AR 0083) was 32 μg/ml, the “MIC of rifampicin at the presence of PMBN or paenipeptin analogue at 4 μg/ml” value ([22]; A. baumannii AR 0083) was 8 μg/ml and the MIC alone ([22]; FDA-CDC AR 0083) was >32 µg/mL. The “MIC of clarithromycin at the presence of PMBN or paenipeptin analogue at 4 μg/ml” value ([23]; A. baumannii AR 0070) was 0.25-0.5 μg/ml, the “MIC of rifampicin at the presence of PMBN or paenipeptin analogue at 4 μg/ml” value ([23]; A. baumannii AR 0070) was 0.0625-0.125 μg/ml and the MIC alone ([23]; FDA-CDC AR 0070) was >32 µg/mL. For the same molecule, the MIC alone ([24]; FDA-CDC AR 0034) was >32 µg/mL, the “MIC of clarithromycin at the presence of PMBN or paenipeptin analogue at 4 μg/ml” value ([24]; K. pneumoniae AR 0034) was >32 μg/ml and the “MIC of rifampicin at the presence of PMBN or paenipeptin analogue at 4 μg/ml” value ([24]; K. pneumoniae AR 0034) was 1 μg/ml. For the same molecule, the “MIC of clarithromycin at the presence of PMBN or paenipeptin analogue at 4 μg/ml” value ([25]; A. baumannii AR 0052) was 0.0313-0.0625 μg/ml, the “MIC of rifampicin at the presence of PMBN or paenipeptin analogue at 4 μg/ml” value ([25]; A. baumannii AR 0052) was 0.0625-0.125 μg/ml and the MIC alone ([25]; FDA-CDC AR 0052) was >32 µg/mL. For the same molecule, the MIC alone ([26]; FDA-CDC AR 0080) was >32 µg/mL, the “MIC of clarithromycin at the presence of PMBN or paenipeptin analogue at 4 μg/ml” value ([26]; K. pneumoniae AR 0080) was 4 μg/ml and the “MIC of rifampicin at the presence of PMBN or paenipeptin analogue at 4 μg/ml” value ([26]; K. pneumoniae AR 0080) was >32 μg/ml. For the same molecule, the “MIC of clarithromycin at the presence of PMBN or paenipeptin analogue at 4 μg/ml” value ([27]; A. baumannii AR 0037) was 0.125-0.25 μg/ml, the “MIC of rifampicin at the presence of PMBN or paenipeptin analogue at 4 μg/ml” value ([27]; A. baumannii AR 0037) was 0.25 μg/ml and the MIC alone ([27]; FDA-CDC AR 0037) was >32 µg/mL. For the same molecule, the MIC alone [28] was > 32 µg/mL.
